From ChEMBL document CHEMBL3885881, “DrugMatrix”

Organism: Rattus norvegicus
Assay: DrugMatrix - Regimen: Daily Repeat
Type: toxicity, organism-based, Sprague-Dawley
Parameters: regimen Daily Repeat, gender Male, age 6-8 weeks
Details: in vivo, po, route oral GAVAGE, […]; for ABSOLUTE BASOPHIL / ABSOLUTE EOSINOPHIL / ABSOLUTE LYMPHOCYTE / ABSOLUTE MONOCYTE / ABSOLUTE SEGMENTED NEUTROPHIL / BASOPHIL / EOSINOPHIL / ERYTHROCYTE COUNT / HEMATOCRIT / HEMOGLOBIN / LEUKOCYTE COUNT / LYMPHOCYTE / MEAN CORPUSCULAR HEMOGLOBIN / MEAN CORPUSCULAR HEMOGLOBIN CONCENTRATION / MEAN CORPUSCULAR VOLUME / MONOCYTE / NEUTROPHIL / NUCLEATED RED BLOOD CELLS / PLATELET COUNT: tissue Blood; for ALANINE AMINOTRANSFERASE / ALBUMIN / ALKALINE PHOSPHATASE / ASPARTATE AMINOTRANSFERASE / BLOOD UREA NITROGEN / CARBON DIOXIDE / CHLORIDE / CHOLESTEROL / CREATINE PHOSPHOKINASE / CREATININE / GLUCOSE / LACTATE DEHYDROGENASE / LIPASE / PHOSPHORUS / POTASSIUM / SODIUM / TOTAL BILIRUBIN / TOTAL PROTEIN / URIC ACID: tissue Plasma
[1] = 0 mg/kg, 72 h, dose level Control, time 3 day
[2] = 0 mg/kg, 120 h, dose level Control, time 5 day
[3] = 10 mg/kg, 72 h, dose level Low, time 3 day

c1ccc2[nH]c(-c3cscn3)nc2c1 [THIABENDAZOLE]
ABSOLUTE BASOPHIL [1]: 0 CELLS/uL
ABSOLUTE EOSINOPHIL [1]: 13.67 CELLS/uL
ABSOLUTE LYMPHOCYTE [1]: 10069.5 CELLS/uL
ABSOLUTE MONOCYTE [1]: 50 CELLS/uL
ABSOLUTE SEGMENTED NEUTROPHIL [1]: 516.83 CELLS/uL
BASOPHIL [1]: 0%
EOSINOPHIL [1]: 0.17%
ERYTHROCYTE COUNT [1]: 5.44 x10E6/uL
HEMATOCRIT [1]: 33.88%
HEMOGLOBIN [1]: 13.23 G/DL
LEUKOCYTE COUNT [1]: 10.65 x10E3/uL
LYMPHOCYTE [1]: 94.67%
MEAN CORPUSCULAR HEMOGLOBIN [1]: 24.37 pg
MEAN CORPUSCULAR HEMOGLOBIN CONCENTRATION [1]: 39.05 G/DL
MEAN CORPUSCULAR VOLUME [1]: 62.38 fL
MONOCYTE [1]: 0.67%
NEUTROPHIL [1]: 4.5%
NUCLEATED RED BLOOD CELLS [1]: 0.33 /100WBC
PLATELET COUNT [1]: 414.5 x10E3/uL
ALANINE AMINOTRANSFERASE [1]: 72 u/L
ALBUMIN [1]: 3.75 G/DL
ALKALINE PHOSPHATASE [1]: 375 u/L
ASPARTATE AMINOTRANSFERASE [1]: 87.5 u/L
BLOOD UREA NITROGEN [1]: 14 mg/dL
CARBON DIOXIDE [1]: 27.5 mmol/L
CHLORIDE [1]: 95.83 MEQ/L
CHOLESTEROL [1]: 68.5 mg/dL
CREATINE PHOSPHOKINASE [1]: 284.33 u/L
CREATININE [1]: 0.16 mg/dL
GLUCOSE [1]: 156.67 mg/dL
LACTATE DEHYDROGENASE [1]: 101.83 u/L
LIPASE [1]: 9.67 u/L
PHOSPHORUS [1]: 10.33 mg/dL
POTASSIUM [1]: 5.22 MEQ/L
SODIUM [1]: 137.67 MEQ/L
TOTAL BILIRUBIN [1]: 0.13 mg/dL
TOTAL PROTEIN [1]: 5.43 G/DL
URIC ACID [1]: 0.8 mg/dL
ABSOLUTE BASOPHIL [2]: 0 CELLS/uL
ABSOLUTE EOSINOPHIL [2]: 20.67 CELLS/uL
ABSOLUTE LYMPHOCYTE [2]: 11518.33 CELLS/uL
ABSOLUTE MONOCYTE [2]: 47 CELLS/uL
ABSOLUTE SEGMENTED NEUTROPHIL [2]: 614 CELLS/uL
BASOPHIL [2]: 0%
EOSINOPHIL [2]: 0.17%
ERYTHROCYTE COUNT [2]: 5.61 x10E6/uL
HEMATOCRIT [2]: 34.25%
HEMOGLOBIN [2]: 13.38 G/DL
LEUKOCYTE COUNT [2]: 12.2 x10E3/uL
LYMPHOCYTE [2]: 94.33%
MEAN CORPUSCULAR HEMOGLOBIN [2]: 23.83 pg
MEAN CORPUSCULAR HEMOGLOBIN CONCENTRATION [2]: 39.08 G/DL
MEAN CORPUSCULAR VOLUME [2]: 61.03 fL
MONOCYTE [2]: 0.33%
NEUTROPHIL [2]: 5.17%
NUCLEATED RED BLOOD CELLS [2]: 0 /100WBC
PLATELET COUNT [2]: 941.83 x10E3/uL
ALANINE AMINOTRANSFERASE [2]: 68.83 u/L
ALBUMIN [2]: 4.12 G/DL
ALKALINE PHOSPHATASE [2]: 492.67 u/L
ASPARTATE AMINOTRANSFERASE [2]: 83.33 u/L
BLOOD UREA NITROGEN [2]: 14 mg/dL
CARBON DIOXIDE [2]: 37 mmol/L
CHLORIDE [2]: 98.67 MEQ/L
CHOLESTEROL [2]: 56.5 mg/dL
CREATINE PHOSPHOKINASE [2]: 167.33 u/L
CREATININE [2]: 0.17 mg/dL
GLUCOSE [2]: 157.5 mg/dL
LACTATE DEHYDROGENASE [2]: 104.83 u/L
LIPASE [2]: 10 u/L
PHOSPHORUS [2]: 10.43 mg/dL
POTASSIUM [2]: 5.46 MEQ/L
SODIUM [2]: 143.87 MEQ/L
TOTAL BILIRUBIN [2]: 0.17 mg/dL
TOTAL PROTEIN [2]: 5.72 G/DL
URIC ACID [2]: 0.85 mg/dL
ABSOLUTE BASOPHIL [3]: 0 CELLS/uL
ABSOLUTE EOSINOPHIL [3]: 0 CELLS/uL
ABSOLUTE LYMPHOCYTE [3]: 5878.33 CELLS/uL
ABSOLUTE MONOCYTE [3]: 47.67 CELLS/uL
ABSOLUTE SEGMENTED NEUTROPHIL [3]: 707.33 CELLS/uL
BASOPHIL [3]: 0%
EOSINOPHIL [3]: 0%
ERYTHROCYTE COUNT [3]: 5.01 x10E6/uL
HEMATOCRIT [3]: 31.07%
HEMOGLOBIN [3]: 12.3 G/DL
LEUKOCYTE COUNT [3]: 6.63 x10E3/uL
LYMPHOCYTE [3]: 88.67%
MEAN CORPUSCULAR HEMOGLOBIN [3]: 24.73 pg
MEAN CORPUSCULAR HEMOGLOBIN CONCENTRATION [3]: 39.77 G/DL
MEAN CORPUSCULAR VOLUME [3]: 62.1 fL
MONOCYTE [3]: 0.67%
NEUTROPHIL [3]: 10.67%
NUCLEATED RED BLOOD CELLS [3]: 0 /100WBC
PLATELET COUNT [3]: 848.67 x10E3/uL
ALANINE AMINOTRANSFERASE [3]: 79.33 u/L
ALBUMIN [3]: 3.7 G/DL
ALKALINE PHOSPHATASE [3]: 386.33 u/L
ASPARTATE AMINOTRANSFERASE [3]: 90.33 u/L
BLOOD UREA NITROGEN [3]: 13.33 mg/dL
CARBON DIOXIDE [3]: 25 mmol/L
CHLORIDE [3]: 96 MEQ/L
CHOLESTEROL [3]: 74 mg/dL
CREATINE PHOSPHOKINASE [3]: 147.33 u/L
CREATININE [3]: 0.21 mg/dL
GLUCOSE [3]: 143.33 mg/dL
LACTATE DEHYDROGENASE [3]: 107.33 u/L
LIPASE [3]: 12.67 u/L
PHOSPHORUS [3]: 10.57 mg/dL
POTASSIUM [3]: 5.5 MEQ/L
SODIUM [3]: 138.4 MEQ/L
TOTAL BILIRUBIN [3]: 0.13 mg/dL
TOTAL PROTEIN [3]: 5.33 G/DL
URIC ACID [3]: 0.87 mg/dL
